Assay results: ChEMBL document CHEMBL1201862, “PubChem BioAssay data set” (2004)
Activity calls are given as the source filed them.

What was measured:
[1] = biological target: Induced myeloid leukemia cell differentiation protein Mcl-1 (Homo sapiens, UniProt Q07820); format: functional
Cytochrome P450 3A4 = Cytochrome P450 3A4 (Homo sapiens, UniProt P08684);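 also: CYP3A4 tested as one member of a cytochrome P450 panel screen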
[2] = biological target: T1, Apoptotic protease-activating factor 1 (Homo sapiens, UniProt O14727); format: functional
T1 sequence (O14727 whole entry): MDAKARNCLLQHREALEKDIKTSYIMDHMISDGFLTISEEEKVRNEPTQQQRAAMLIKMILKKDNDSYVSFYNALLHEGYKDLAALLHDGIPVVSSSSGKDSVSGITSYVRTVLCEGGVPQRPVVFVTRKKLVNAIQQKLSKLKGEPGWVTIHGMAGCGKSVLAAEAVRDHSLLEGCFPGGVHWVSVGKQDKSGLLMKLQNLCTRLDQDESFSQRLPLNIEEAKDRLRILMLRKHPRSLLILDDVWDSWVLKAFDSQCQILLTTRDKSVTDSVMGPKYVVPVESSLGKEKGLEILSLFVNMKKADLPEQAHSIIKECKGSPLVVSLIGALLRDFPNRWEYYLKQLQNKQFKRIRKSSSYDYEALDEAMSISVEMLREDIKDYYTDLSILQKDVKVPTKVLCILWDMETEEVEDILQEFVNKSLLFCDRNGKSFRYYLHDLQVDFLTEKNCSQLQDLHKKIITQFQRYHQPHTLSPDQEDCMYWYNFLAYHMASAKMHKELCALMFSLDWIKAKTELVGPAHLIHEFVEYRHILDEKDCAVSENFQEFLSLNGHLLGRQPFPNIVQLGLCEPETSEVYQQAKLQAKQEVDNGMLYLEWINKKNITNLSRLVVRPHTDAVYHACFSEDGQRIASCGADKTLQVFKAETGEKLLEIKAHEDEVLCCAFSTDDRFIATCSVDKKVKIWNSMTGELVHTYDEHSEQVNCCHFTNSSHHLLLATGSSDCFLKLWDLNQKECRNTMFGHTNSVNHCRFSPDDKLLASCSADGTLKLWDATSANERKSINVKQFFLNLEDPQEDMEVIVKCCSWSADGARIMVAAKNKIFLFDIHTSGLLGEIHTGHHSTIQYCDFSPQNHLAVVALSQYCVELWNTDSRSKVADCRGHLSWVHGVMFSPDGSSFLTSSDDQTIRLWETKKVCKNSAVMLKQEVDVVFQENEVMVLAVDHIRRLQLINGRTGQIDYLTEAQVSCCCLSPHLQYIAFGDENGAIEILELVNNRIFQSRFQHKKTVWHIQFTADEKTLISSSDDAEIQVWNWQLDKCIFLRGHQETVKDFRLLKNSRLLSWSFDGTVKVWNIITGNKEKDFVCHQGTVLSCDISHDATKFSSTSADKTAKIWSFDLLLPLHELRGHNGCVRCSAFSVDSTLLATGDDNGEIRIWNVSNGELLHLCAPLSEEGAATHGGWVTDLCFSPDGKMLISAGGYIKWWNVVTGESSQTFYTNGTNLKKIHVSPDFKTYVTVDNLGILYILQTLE

Streptococcus = assay: GAS UMAA2166 growth inhibition – luminescence, BacTiterGlo, counter-screen for streptokinase expression inhibitor project, dose response (AID 1915); format: functional, organism-based;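 also: potency for reduction of bacterial viability or growth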
[3] = fluconazole-exposed Candida albicans growth modulators – fluorescence, retest, confirmation (AID 2467); format: functional, cell-based
[4] = tested on: Streptococcus sp. 'group A'; assay: Streptococcus pyogenes SK(-)GAS viability under kanamycin – luminescence, BacTiterGlo, confirmation, counter-screen for streptokinase expression inhibitor project, dose response (AID 1900); format: functional, organism-based
Exodeoxyribonuclease V = Exodeoxyribonuclease V (Escherichia coli (strain K12), UniProt P04993+P07648+P08394); assay: RecBCD inhibition via phage-restricted bacterial growth – absorbance, V66 E. coli, mutant T4 phage, counter-screen for AddAB inhibitor project, dose response (AID 492957); format: functional, cell-based, Escherichia coli str. K-12 substr. MG1655
Sequence of Exodeoxyribonuclease V (P04993 whole entry): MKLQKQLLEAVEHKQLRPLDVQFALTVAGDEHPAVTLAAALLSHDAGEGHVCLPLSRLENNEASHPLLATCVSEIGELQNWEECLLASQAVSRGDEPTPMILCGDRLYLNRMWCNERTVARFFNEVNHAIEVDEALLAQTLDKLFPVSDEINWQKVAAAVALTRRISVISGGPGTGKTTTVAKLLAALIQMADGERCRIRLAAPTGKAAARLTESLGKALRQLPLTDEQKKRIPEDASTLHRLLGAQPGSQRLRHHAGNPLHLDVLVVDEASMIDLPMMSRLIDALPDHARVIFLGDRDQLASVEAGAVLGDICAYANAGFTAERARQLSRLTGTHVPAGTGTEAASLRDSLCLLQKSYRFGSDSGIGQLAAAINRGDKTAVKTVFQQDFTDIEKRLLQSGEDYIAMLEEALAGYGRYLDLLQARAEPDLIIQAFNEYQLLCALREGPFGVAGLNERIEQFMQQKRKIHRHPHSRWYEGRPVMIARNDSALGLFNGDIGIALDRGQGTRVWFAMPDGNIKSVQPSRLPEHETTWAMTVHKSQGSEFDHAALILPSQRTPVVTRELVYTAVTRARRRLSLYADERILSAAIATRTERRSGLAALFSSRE
Sequence of Exodeoxyribonuclease V (P07648 whole entry): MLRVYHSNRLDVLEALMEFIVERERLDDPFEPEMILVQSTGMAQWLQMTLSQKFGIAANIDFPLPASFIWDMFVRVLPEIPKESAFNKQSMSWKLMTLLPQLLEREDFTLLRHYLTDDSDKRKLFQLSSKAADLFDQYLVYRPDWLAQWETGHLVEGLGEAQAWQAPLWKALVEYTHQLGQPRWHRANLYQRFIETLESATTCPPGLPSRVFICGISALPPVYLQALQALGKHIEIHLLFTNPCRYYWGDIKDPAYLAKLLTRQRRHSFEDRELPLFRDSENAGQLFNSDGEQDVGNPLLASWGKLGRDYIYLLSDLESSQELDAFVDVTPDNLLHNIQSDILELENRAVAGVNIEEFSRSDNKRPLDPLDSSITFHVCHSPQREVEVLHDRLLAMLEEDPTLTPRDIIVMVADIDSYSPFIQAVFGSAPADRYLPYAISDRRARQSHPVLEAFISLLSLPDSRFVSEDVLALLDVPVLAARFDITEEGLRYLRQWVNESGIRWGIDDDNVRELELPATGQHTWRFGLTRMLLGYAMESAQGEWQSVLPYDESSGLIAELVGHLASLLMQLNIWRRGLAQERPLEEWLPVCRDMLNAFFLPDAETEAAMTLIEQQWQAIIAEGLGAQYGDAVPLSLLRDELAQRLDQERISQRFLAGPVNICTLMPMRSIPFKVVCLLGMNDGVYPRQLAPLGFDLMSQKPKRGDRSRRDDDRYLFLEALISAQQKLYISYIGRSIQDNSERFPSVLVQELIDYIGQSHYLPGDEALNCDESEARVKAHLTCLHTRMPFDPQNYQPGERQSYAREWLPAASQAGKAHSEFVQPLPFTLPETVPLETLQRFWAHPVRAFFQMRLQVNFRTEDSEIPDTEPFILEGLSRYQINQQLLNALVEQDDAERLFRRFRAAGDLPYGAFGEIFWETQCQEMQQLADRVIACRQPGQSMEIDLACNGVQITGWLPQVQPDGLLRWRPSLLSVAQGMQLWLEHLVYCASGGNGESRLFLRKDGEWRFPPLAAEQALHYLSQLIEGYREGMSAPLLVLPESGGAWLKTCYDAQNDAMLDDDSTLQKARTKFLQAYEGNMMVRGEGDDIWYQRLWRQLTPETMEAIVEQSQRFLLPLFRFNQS
Sequence of Exodeoxyribonuclease V (P08394 whole entry): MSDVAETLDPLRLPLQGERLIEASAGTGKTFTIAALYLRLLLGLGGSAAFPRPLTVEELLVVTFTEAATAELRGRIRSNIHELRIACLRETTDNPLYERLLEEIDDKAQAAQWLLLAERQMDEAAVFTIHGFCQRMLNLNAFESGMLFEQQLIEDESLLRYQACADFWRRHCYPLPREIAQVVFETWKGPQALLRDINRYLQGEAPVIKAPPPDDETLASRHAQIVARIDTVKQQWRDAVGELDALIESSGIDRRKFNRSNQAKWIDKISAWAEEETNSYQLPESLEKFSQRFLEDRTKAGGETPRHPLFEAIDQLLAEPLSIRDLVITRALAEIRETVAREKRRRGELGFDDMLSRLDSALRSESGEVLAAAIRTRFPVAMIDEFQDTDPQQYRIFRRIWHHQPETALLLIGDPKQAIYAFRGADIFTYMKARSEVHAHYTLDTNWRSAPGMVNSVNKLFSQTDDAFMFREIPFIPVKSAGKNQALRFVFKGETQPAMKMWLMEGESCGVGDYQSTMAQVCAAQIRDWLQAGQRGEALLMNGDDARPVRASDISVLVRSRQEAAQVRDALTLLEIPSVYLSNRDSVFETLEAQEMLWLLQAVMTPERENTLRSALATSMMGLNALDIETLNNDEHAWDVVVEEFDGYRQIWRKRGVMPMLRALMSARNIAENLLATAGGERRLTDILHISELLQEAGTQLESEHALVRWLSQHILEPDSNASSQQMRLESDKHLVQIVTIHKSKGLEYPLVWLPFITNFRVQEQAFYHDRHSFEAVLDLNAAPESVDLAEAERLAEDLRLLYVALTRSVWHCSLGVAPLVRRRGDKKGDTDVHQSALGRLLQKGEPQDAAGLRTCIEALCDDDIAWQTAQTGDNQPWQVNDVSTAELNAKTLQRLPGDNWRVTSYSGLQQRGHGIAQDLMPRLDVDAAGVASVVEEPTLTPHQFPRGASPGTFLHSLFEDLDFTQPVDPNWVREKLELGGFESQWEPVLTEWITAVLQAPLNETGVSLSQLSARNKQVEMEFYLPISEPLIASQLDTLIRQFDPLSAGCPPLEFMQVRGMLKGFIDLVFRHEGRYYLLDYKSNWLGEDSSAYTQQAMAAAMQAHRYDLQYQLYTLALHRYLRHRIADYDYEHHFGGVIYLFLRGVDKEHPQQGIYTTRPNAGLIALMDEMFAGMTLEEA

[5] = biological target: Heat shock protein HSP 90-alpha (Homo sapiens, UniProt P07900); format: functional, organism-based
[6] = general mammalian cell viability loss – inhibitor set, cherry-pick, set 2, cytotoxicity control for miR-122 modulator project, dose response (AID 720697); format: functional, cell-based
[7] = luciferase reporter signal suppression in cells – H4 neuroglioma cells, luminescence, dose response (AID 1990); format: functional, cell-based
[8] = NIH3T3 cell viability loss – ATP luminescence, mouse fibroblasts, counter-screen, dose response (AID 2010); format: functional, cell-based;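 also: cells exposed to compound for about 90 hours before reading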
Insulin-degrading enzyme = biological target: T2, Insulin-degrading enzyme (Homo sapiens, UniProt P14735); assay: cellular IDE activation of Abeta substrate cleavage – fluorescence polarization, HEK cells, dose response (AID 588439); format: functional, cell-based
T2 sequence (P14735 whole entry): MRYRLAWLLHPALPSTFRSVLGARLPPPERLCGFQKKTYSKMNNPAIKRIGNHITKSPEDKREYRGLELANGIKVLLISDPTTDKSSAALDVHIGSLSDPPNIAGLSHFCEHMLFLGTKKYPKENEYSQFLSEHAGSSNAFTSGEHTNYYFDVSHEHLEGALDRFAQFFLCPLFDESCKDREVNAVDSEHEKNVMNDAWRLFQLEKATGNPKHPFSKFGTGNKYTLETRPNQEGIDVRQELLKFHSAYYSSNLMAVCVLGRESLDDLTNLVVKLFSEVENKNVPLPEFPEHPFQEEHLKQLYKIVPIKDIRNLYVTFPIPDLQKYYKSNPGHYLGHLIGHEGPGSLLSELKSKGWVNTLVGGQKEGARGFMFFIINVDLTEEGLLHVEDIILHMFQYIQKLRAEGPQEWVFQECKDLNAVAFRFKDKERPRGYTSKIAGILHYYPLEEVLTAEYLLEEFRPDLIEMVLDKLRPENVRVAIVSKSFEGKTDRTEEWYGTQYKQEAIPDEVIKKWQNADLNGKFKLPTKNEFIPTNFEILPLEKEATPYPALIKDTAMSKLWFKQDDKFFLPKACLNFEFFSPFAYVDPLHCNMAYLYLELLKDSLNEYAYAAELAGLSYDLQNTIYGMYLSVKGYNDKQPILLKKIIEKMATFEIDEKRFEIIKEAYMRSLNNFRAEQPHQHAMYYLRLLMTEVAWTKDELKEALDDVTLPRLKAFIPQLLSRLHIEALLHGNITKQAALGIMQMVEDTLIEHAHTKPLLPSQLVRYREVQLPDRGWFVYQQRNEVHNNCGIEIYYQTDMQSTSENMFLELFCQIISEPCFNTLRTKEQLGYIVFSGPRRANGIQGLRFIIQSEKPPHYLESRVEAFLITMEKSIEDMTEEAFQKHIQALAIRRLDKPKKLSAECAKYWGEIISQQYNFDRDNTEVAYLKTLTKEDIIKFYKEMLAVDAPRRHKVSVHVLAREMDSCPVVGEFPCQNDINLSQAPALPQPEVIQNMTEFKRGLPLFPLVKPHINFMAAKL

Beta-lactamase = Beta-lactamase (Pseudomonas aeruginosa, UniProt Q79MP6);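 also: biochemical dose-response test of metallo-beta-lactamase enzyme inhibition, read out by epi-absorbance; purified recombinant IMP-1 metallo-beta-lactamase with nitrocefin as substrate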
Sequence of Beta-lactamase (Q79MP6 whole entry): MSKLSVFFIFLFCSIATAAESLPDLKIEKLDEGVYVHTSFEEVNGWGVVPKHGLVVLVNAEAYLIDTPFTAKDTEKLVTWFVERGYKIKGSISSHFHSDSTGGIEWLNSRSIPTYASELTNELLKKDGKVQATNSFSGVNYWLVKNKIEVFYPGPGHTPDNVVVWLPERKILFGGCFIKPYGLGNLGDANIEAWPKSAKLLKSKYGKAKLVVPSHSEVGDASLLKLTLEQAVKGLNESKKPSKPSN

Sequence of Cytochrome P450 3A4 (P08684 whole entry): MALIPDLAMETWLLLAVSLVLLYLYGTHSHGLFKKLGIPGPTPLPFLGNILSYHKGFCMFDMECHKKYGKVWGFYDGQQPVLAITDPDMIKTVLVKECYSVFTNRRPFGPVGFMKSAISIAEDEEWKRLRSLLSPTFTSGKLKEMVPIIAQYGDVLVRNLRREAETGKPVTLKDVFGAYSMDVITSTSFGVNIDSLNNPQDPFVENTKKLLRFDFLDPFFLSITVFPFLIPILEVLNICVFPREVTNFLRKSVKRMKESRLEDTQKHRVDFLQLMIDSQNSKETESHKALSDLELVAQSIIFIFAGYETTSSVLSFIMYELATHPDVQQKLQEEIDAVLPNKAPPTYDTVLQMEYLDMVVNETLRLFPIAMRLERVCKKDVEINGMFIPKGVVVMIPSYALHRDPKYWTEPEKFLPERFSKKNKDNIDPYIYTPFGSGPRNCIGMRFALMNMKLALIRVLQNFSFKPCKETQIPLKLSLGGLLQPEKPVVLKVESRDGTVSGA
Sequence of Induced myeloid leukemia cell differentiation protein Mcl-1 (Q07820 whole entry): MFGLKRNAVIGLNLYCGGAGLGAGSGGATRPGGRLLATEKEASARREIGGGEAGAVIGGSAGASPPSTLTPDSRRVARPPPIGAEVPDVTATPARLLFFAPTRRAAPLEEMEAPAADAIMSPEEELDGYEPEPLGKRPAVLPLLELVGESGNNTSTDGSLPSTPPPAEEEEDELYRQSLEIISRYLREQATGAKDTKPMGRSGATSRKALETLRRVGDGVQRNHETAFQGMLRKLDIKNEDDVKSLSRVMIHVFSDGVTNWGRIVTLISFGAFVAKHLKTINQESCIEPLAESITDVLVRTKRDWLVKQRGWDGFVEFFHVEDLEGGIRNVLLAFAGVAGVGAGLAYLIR

With CC(C)C(C(=O)O)N1C(=O)/C(=C/C=C/c2ccco2)SC1=S (stereo not drawn) the IC50 [1] was > 54 µM (active), the AC50 (Cytochrome P450 3A4) was 31.6 µM (inconclusive) and the IC50 [2] was > 100 µM (inactive).

For Oc1ccc2ccccc2c1/C=N/Nc1nnc(-c2ncc[nH]2)c2ccccc12, the EC50 (Streptococcus) was 5.84 µM (active), the EC50 [3] was 0.714 µM (active) and the EC50 [4] was 1.98 µM (active). For the same compound, the IC50 (Exodeoxyribonuclease V) was > 119 µM (inactive), the AC50 [5] was 3.53 µM (active) and the AC50 [6] was 2.19 µM (active). The EC50 [7] was 0.178 µM (active) and the EC50 [8] was < 6 µM (inconclusive).

In the case of O=C1CCN2C=Nc3cccc4ccc1c2c34, the EC50 (Insulin-degrading enzyme) was > 54.7 µM (inactive) and the IC50 (Beta-lactamase) was 11.8 µM (inactive).
